Data reported in PubChem BioAssay AID248 (DTP/NCI, 2004).
Toxic doses and inconclusive results are not listed. Cut-off read from the data, not from the text of the source: active = T/C of 150% or more; inactive = T/C below 125%.

Tested on: L1210 leukemia ip in BDF1 mice, survival T/C
Assay: NCI In Vivo Anticancer Drug Screen. Data for tumor model L1210 Leukemia (intraperitoneal) in B6D2F1 (BDF1) mice
Settings: endpoint: mean survival time, higher = longer survival
Summary of the method: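 Ratio derived from survival: compound-dosed mice over vehicle-dosed mice, all bearing a transplantable tumor.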

[1] = dose: 100.0 mg/kg/injection, schedule: Q01DX009 (ip), vehicle: Klucel (hydroxypropylcellulose) (HPC)
[2] = dose: 200.0 mg/kg/injection, schedule: Q01DX009 (ip), vehicle: Klucel (hydroxypropylcellulose) (HPC)
[3] = dose: 400.0 mg/kg/injection, schedule: Q01DX009 (ip), vehicle: Klucel (hydroxypropylcellulose) (HPC)
[4] = dose: 100.0 mg/kg/injection, schedule: Q04DX002 (ip), vehicle: Klucel (hydroxypropylcellulose) (HPC)
[5] = dose: 200.0 mg/kg/injection, schedule: Q04DX002 (ip), vehicle: Klucel (hydroxypropylcellulose) (HPC)
[6] = dose: 100.0 mg/kg/injection, schedule: Q01DX001 (ip), vehicle: Klucel (hydroxypropylcellulose) (HPC)
[7] = dose: 200.0 mg/kg/injection, schedule: Q01DX001 (ip), vehicle: Klucel (hydroxypropylcellulose) (HPC)
[8] = dose: 400.0 mg/kg/injection, schedule: Q01DX001 (ip), vehicle: Klucel (hydroxypropylcellulose) (HPC)
[9] = dose: 100.0 mg/kg/injection, schedule: Q04DX003 (ip), vehicle: saline with Tween-80
[10] = dose: 200.0 mg/kg/injection, schedule: Q04DX003 (ip), vehicle: saline with Tween-80
[11] = dose: 400.0 mg/kg/injection, schedule: Q04DX003 (ip), vehicle: saline with Tween-80
[12] = dose: 100.0 mg/kg/injection, schedule: Q01DX001 (ip), vehicle: carboxymethylcellulose (CMC)
[13] = dose: 200.0 mg/kg/injection, schedule: Q01DX001 (ip), vehicle: carboxymethylcellulose (CMC)
[14] = dose: 400.0 mg/kg/injection, schedule: Q01DX001 (ip), vehicle: carboxymethylcellulose (CMC)
[15] = dose: 100.0 mg/kg/injection, schedule: Q01DX009 (ip), vehicle: saline with Tween-80
[16] = dose: 200.0 mg/kg/injection, schedule: Q01DX009 (ip), vehicle: saline with Tween-80
[17] = dose: 400.0 mg/kg/injection, schedule: Q01DX009 (ip), vehicle: saline with Tween-80

Measured: T/C

CC/C(=C/c1ccccc1)C(N)=O
inactive: dose: 100.0 mg/kg/injection, schedule: Q01DX001 (ip), vehicle: steriod suspending solution 87 % of control | dose: 200.0 mg/kg/injection, schedule: Q01DX001 (ip), vehicle: steriod suspending solution 103 % of control

Cc1ccc(NC(=O)Oc2ccc(C(C)(C)C)cc2Br)cc1NC(=O)Oc1ccc(C(C)(C)C)cc1Br
inactive: dose: 100.0 mg/kg/injection, schedule: Q01DX009 (ip), vehicle: other 87 % of control | dose: 200.0 mg/kg/injection, schedule: Q01DX009 (ip), vehicle: other 100 % of control | dose: 400.0 mg/kg/injection, schedule: Q01DX009 (ip), vehicle: other 98 % of control

COc1ccc2c(c1Oc1ccc([N+](=O)[O-])cc1[N+](=O)[O-])C13CCN(C)C(C2)C1CCC1(C3)OCCO1 (stereo not given)
inactive: dose: 12.5 mg/kg/injection, schedule: Q01DX009 (ip), vehicle: Klucel (hydroxypropylcellulose) (HPC) 98 % of control | dose: 25.0 mg/kg/injection, schedule: Q01DX009 (ip), vehicle: Klucel (hydroxypropylcellulose) (HPC) 121 % of control | dose: 50.0 mg/kg/injection, schedule: Q01DX009 (ip), vehicle: Klucel (hydroxypropylcellulose) (HPC) 101 % of control | [1] 102 % of control | [2] 102 % of control | [3] 88 % of control

CCN(CC)c1ccc(Cc2ccc(N(CC)CC)cc2Br)c(Br)c1
inactive: [1] 100 % of control | dose: 100.0 mg/kg/injection, schedule: Q04DX003 (ip), vehicle: Klucel (hydroxypropylcellulose) (HPC) 96 % of control | [2] 105 % of control | dose: 200.0 mg/kg/injection, schedule: Q04DX003 (ip), vehicle: Klucel (hydroxypropylcellulose) (HPC) 104 % of control | [3] 107 % of control | dose: 400.0 mg/kg/injection, schedule: Q04DX003 (ip), vehicle: Klucel (hydroxypropylcellulose) (HPC) 94 % of control

CN1C(=O)c2c(Cl)c(Cl)c(Cl)c(Cl)c2C1=O
inactive: dose: 222.0 mg/kg/injection, schedule: Q01DX Z (ip), vehicle: methylcellulose (MC) 105 % of control | dose: 333.0 mg/kg/injection, schedule: Q01DX Z (ip), vehicle: methylcellulose (MC) 105 % of control | dose: 500.0 mg/kg/injection, schedule: Q01DX Z (ip), vehicle: methylcellulose (MC) 98 % of control

CC(C)(C)NC(=O)NCc1cccc(Cl)c1
inactive: [4] 100 % of control | [5] 107 % of control | dose: 400.0 mg/kg/injection, schedule: Q04DX002 (ip), vehicle: Klucel (hydroxypropylcellulose) (HPC) 96 % of control

O=C1C(c2ccccc2)CS(=O)(=O)CC1c1ccccc1 (stereo not given)
inactive: dose: 50.0 mg/kg/injection, schedule: Q04DX002 (ip), vehicle: Klucel (hydroxypropylcellulose) (HPC) 101 % of control | [4] 99 % of control | [5] 96 % of control

O=C(NC(CCl)c1ccccc1)c1ccc([N+](=O)[O-])cc1 (stereo not given)
inactive: dose: 75.0 mg/kg/injection, schedule: Q04DX003 (ip), vehicle: Klucel (hydroxypropylcellulose) (HPC) 100 % of control | [6] 98 % of control | dose: 150.0 mg/kg/injection, schedule: Q04DX003 (ip), vehicle: Klucel (hydroxypropylcellulose) (HPC) 103 % of control | [7] 104 % of control | dose: 300.0 mg/kg/injection, schedule: Q04DX003 (ip), vehicle: Klucel (hydroxypropylcellulose) (HPC) 97 % of control | [8] 104 % of control

O=C1/C(=C\c2cccc3ccccc23)COC/C1=C/c1cccc2ccccc12
inactive: dose: 100.0 mg/kg/injection, schedule: Q01DX009 (ip), vehicle: saline 93 % of control | dose: 200.0 mg/kg/injection, schedule: Q01DX009 (ip), vehicle: saline 97 % of control | dose: 400.0 mg/kg/injection, schedule: Q01DX009 (ip), vehicle: saline 98 % of control

COc1cc(/C=C2/N=C(C)OC2=O)cc(Cl)c1OC
inactive: dose: 100.0 mg/kg/injection, schedule: Q01DX001 (ip), vehicle: saline 87 % of control | dose: 200.0 mg/kg/injection, schedule: Q01DX001 (ip), vehicle: saline 90 % of control | dose: 400.0 mg/kg/injection, schedule: Q01DX001 (ip), vehicle: saline 87 % of control

O=[N+]([O-])c1ccc(S(=O)(=O)OCc2ccccc2COS(=O)(=O)c2ccc([N+](=O)[O-])cc2)cc1
inactive: dose: 50.0 mg/kg/injection, schedule: Q04DX002 (ip), vehicle: saline with Tween-80 106 % of control | dose: 100.0 mg/kg/injection, schedule: Q04DX002 (ip), vehicle: saline with Tween-80 101 % of control

COC(=O)c1ccc(COc2ccc([N+](=O)[O-])cc2Cl)cc1
inactive: dose: 100.0 mg/kg/injection, schedule: Q01DX009 (ip), vehicle: saline sonified 94 % of control | [9] 96 % of control | dose: 200.0 mg/kg/injection, schedule: Q01DX009 (ip), vehicle: saline sonified 96 % of control | [10] 94 % of control | dose: 400.0 mg/kg/injection, schedule: Q01DX009 (ip), vehicle: saline sonified 94 % of control | [11] 96 % of control

CCCCCCCCCN(CCCC)CCCC
inactive: dose: 25.0 mg/kg/injection, schedule: Q01DX001 (ip), vehicle: saline with Tween-80 95 % of control | dose: 50.0 mg/kg/injection, schedule: Q01DX001 (ip), vehicle: saline with Tween-80 88 % of control | dose: 100.0 mg/kg/injection, schedule: Q01DX001 (ip), vehicle: saline with Tween-80 102 % of control

CC(C)(C)OC(=O)NN1Cc2ccccc2Cc2ccccc2C1
inactive: [12] 96 % of control | [13] 91 % of control | [14] 96 % of control

Cc1ccc(N2C(=O)CNC2=O)cc1
inactive: [6] 101 % of control | [7] 101 % of control | [8] 96 % of control

NCCSc1cc(O)c2c(c1N)C(=O)c1ccccc1C2=O
inactive: dose: 50.0 mg/kg/injection, schedule: Q01DX001 (ip), vehicle: carboxymethylcellulose (CMC) 97 % of control | [12] 97 % of control | [13] 100 % of control | [14] 97 % of control

CCOC(=O)c1ccc(NC(=O)Nc2ccc(SC)cc2)cc1N(CC)CC
inactive: [15] 104 % of control | [16] 94 % of control | [17] 92 % of control

CCSP(N)(=O)c1ccccc1 (stereo not given)
inactive: dose: 75.0 mg/kg/injection, schedule: Q01DX001 (ip), vehicle: saline 101 % of control

Cc1ccc(S(=O)(=O)OCCOCCOc2ccc(C(C)(C)CC(C)(C)C)cc2)cc1
inactive: dose: 100.0 mg/kg/injection, schedule: Q01DX001 (ip), vehicle: acetone 97 % of control | dose: 100.0 mg/kg/injection, schedule: Q04DX003 (ip), vehicle: saline 98 % of control | dose: 200.0 mg/kg/injection, schedule: Q01DX001 (ip), vehicle: acetone 89 % of control | dose: 200.0 mg/kg/injection, schedule: Q04DX003 (ip), vehicle: saline 92 % of control | dose: 400.0 mg/kg/injection, schedule: Q01DX001 (ip), vehicle: acetone 87 % of control | dose: 400.0 mg/kg/injection, schedule: Q04DX003 (ip), vehicle: saline 91 % of control

COC(=O)C(O)c1cccc(OC)c1 (stereo not given)
inactive: [15] 96 % of control | [9] 107 % of control | [16] 93 % of control | [10] 96 % of control | [17] 104 % of control | [11] 105 % of control
